Test results reported in US20210386367A1, “DEVICES AND SYSTEMS FOR GASTROINTESTINAL MICROBIOME DETECTION AND MANIPULATION” (Progenity, Inc., priority 2018, published 2021).
In brackets after ≈: the same amount, converted by molar mass.

What was measured:
[1] = tested on: E. coli spontaneous mutants; test: Broth microdilution MIC of spontaneous mutants; type: cell-based, Escherichia coli
Method: (§1) Select isolates were subcultured onto agar containing drug at the selection concentration, were identified by MALDI, and were frozen for broth microdilution MIC testing as described below.
(§2) To determine whether colonies growing on drug selection plates had elevated MIC values to the selecting antibiotic, susceptibility testing by broth microdilution was conducted on isolated mutants following methodology recommended by CLSI (1), (2), and (3) “Performance Standards for Antimicrobial Susceptibility Testing; Twenty-Eighth Informational Supplement.,” CLSI document M100-S28, 2018.
(§3) All wells in columns 2 through 12 of a standard 96-well microdilution plate (Costar 3795) were filled with 150 μL of the appropriate diluent. Then, 300 μL of the test agents were added to the wells of column 1 of the plates at […] the highest final concentration to be tested. Serial two-fold dilutions were made across the rows through column 11 using the Biomek 2000. The wells of column 12 contained no drug and served as the growth control wells. This plate served as the “mother plate” from which selected MIC assay plates or “daughter plates” were made.
(§4) 2 μL of drug solution from each well of a mother plate was added to each corresponding well of the daughter plate in a single step. A standardized inoculum of each aerobic test organism was prepared per CLSI methods to equal a 0.5 McFarland standard, followed by a dilution of 1:20 in MHB II. The plates were then inoculated with 10 μL of the diluted inoculum using the Biomek 2000 from low to high drug concentration, resulting in a final concentration of approximately 5×10^5 CFU/mL. An un-inoculated plate was incubated for the purpose of assessing solubility of the drug in the test media.
(§5) The plates for the aerobic tests were stacked 3-4 high, covered with a sterile lid on the top plate, and incubated aerobically at 35° C. for 18-20 hr. The MIC was recorded as the lowest concentration of drug that inhibited visible growth of the organism.

[2] = tested on: Streptococcus spp. spontaneous mutants; test: organism not typed; type: cell-based
Method: as §1, §2, §3, §4, §5

[3] = tested on: Bacteroides spp. spontaneous mutants; test: Broth microdilution MIC of spontaneous mutants; type: cell-based
Method: as §1, §2, §3
Daughter plates for anaerobic organisms were transferred to a Bactron II anaerobic chamber (Sheldon Manufacturing Inc., Cornelius, Oreg.) to reduce for 1 hour prior to inoculation. The inoculum for each organism was prepared in the anaerobic chamber and dispensed into sterile disposable reservoirs. Inoculation was completed using a multichannel pipette to transfer 10 μL of the inoculum into each well of the daughter plate. This yielded a final cell concentration in the daughter plates of approximately 1×10^6 CFU/mL.

How did the MIC ([1]; E. coli ATCC 25922, selected on rifaximin 4X MIC, Colony A) turn out when `COc1c(N2C[C@@H]3CCCN[C@@H]3C2)c(F)cc2c(=O)c(C(=O)O)cn(C3CC3)c12` [MOX] was run?
Its MIC is 0.015 mg/L.

What about the MIC ([1]; E. coli ATCC 25922, selected on rifaximin 4X MIC, Colony B) of the same compound?
The MIC was 0.015 mg/L.

What about the MIC ([1]; E. coli ATCC 25922, selected on rifaximin 8X MIC, Colony A) of the same compound?
Its MIC is 0.015 mg/L.

What about the MIC ([1]; E. coli ATCC 25922, selected on rifaximin 8X MIC, Colony B) of the same compound?
The MIC was 0.015 mg/L.

What about the MIC ([1]; E. coli ATCC 25922 Parent (Table 52)) of the same compound?
Its MIC is 0.03 mg/L.

And the MIC ([1]; E. coli ATCC 35218, selected on rifaximin 4X MIC, Colony A)?
The MIC was 0.03 mg/L.

And the MIC ([1]; E. coli ATCC 35218, selected on rifaximin 4X MIC, Colony B)?
The MIC was 0.03 mg/L.

What about the MIC ([1]; E. coli ATCC 35218, selected on rifaximin 8X MIC, Colony A) of the same compound?
The MIC was 0.03 mg/L.

What about the MIC ([1]; E. coli ATCC 35218, selected on rifaximin 8X MIC, Colony B) of the same compound?
Its MIC is 0.03 mg/L.

And the MIC ([1]; E. coli ATCC 35218 Parent (Table 52))?
The MIC was 0.03 mg/L.

What about the MIC ([1]; E. coli MMX 1312, selected on ceftriaxone 4X MIC, Colony A) of the same compound?
Its MIC is 0.03 mg/L.

What about the MIC ([1]; E. coli MMX 1312, selected on ceftriaxone 4X MIC, Colony B) of the same compound?
The MIC was 0.06 mg/L.

What about the MIC ([1]; E. coli MMX 1312, selected on ceftriaxone 4X MIC, Colony C) of the same compound?
Its MIC is 0.03 mg/L.

And the MIC ([1]; E. coli MMX 1312, selected on ceftriaxone 8X MIC, Colony A)?
Its MIC is 0.03 mg/L.

What about the MIC ([1]; E. coli MMX 1312, selected on ceftriaxone 8X MIC, Colony B) of the same compound?
Its MIC is 0.03 mg/L.

And the MIC ([1]; E. coli MMX 1312, selected on ceftriaxone 8X MIC, Colony C)?
Its MIC is 0.03 mg/L.

What about the MIC ([1]; E. coli MMX 1312, selected on rifaximin 4X MIC, Colony A) of the same compound?
Its MIC is 0.03 mg/L.

What about the MIC ([1]; E. coli MMX 1312, selected on rifaximin 4X MIC, Colony B) of the same compound?
The MIC was 0.03 mg/L.

And the MIC ([1]; E. coli MMX 1312, selected on rifaximin 8X MIC, Colony A)?
Its MIC is 0.03 mg/L.

And the MIC ([1]; E. coli MMX 1312, selected on rifaximin 8X MIC, Colony B)?
Its MIC is 0.03 mg/L.

What about the MIC ([1]; E. coli MMX 1312 Parent) of the same compound?
The MIC was 0.03 mg/L.

What about the MIC ([1]; E. coli MMX 1312 Parent (Table 49)) of the same compound?
Its MIC is 0.03 mg/L.

What about the MIC ([1]; E. coli MMX 1312 Parent (Table 52)) of the same compound?
Its MIC is 0.03 mg/L.

What about the MIC ([1]; E. coli MMX 1312 mutant selected on meropenem 4X MIC, colony A) of the same compound?
The MIC was 0.03 mg/L.

What about the MIC ([1]; E. coli MMX 1312 mutant selected on meropenem 4X MIC, colony B) of the same compound?
The MIC was 0.03 mg/L.

And the MIC ([1]; E. coli MMX 1312 mutant selected on meropenem 4X MIC, colony C)?
The MIC was 0.03 mg/L.

And the MIC ([1]; E. coli MMX 1312 mutant selected on meropenem 8X MIC, colony A)?
Its MIC is 0.03 mg/L.

What about the MIC ([1]; E. coli MMX 1312 mutant selected on meropenem 8X MIC, colony B) of the same compound?
The MIC was 0.03 mg/L.

What about the MIC ([1]; E. coli MMX 1312 mutant selected on meropenem 8X MIC, colony C) of the same compound?
The MIC was 0.03 mg/L.

And the MIC ([2]; S. agaloctiae ATCC 13813, selected on rifaximin 4X MIC, Colony A)?
The MIC was 0.06 mg/L (≈ 0.149 µM).

And the MIC ([2]; S. agaloctiae ATCC 13813, selected on rifaximin 4X MIC, Colony B)?
The MIC was 0.06 mg/L (≈ 0.149 µM).

And the MIC ([2]; S. agaloctiae ATCC 13813, selected on rifaximin 8X MIC, Colony A)?
The MIC was 0.06 mg/L (≈ 0.149 µM).

What about the MIC ([2]; S. agaloctiae ATCC 13813, selected on rifaximin 8X MIC, Colony B) of the same compound?
The MIC was 0.03 mg/L (≈ 0.0747 µM).

And the MIC ([2]; S. agaloctiae ATCC 13813 Parent)?
Its MIC is 0.06 mg/L (≈ 0.149 µM).

What about the MIC ([2]; S. pneumoniae ATCC 49619, selected on rifaximin 4X MIC, Colony A) of the same compound?
Its MIC is 0.06 mg/L (≈ 0.149 µM).

What about the MIC ([2]; S. pneumoniae ATCC 49619, selected on rifaximin 4X MIC, Colony B) of the same compound?
The MIC was 0.06 mg/L (≈ 0.149 µM).

And the MIC ([2]; S. pneumoniae ATCC 49619, selected on rifaximin 8X MIC, Colony A)?
The MIC was 0.06 mg/L (≈ 0.149 µM).

What about the MIC ([2]; S. pneumoniae ATCC 49619, selected on rifaximin 8X MIC, Colony B) of the same compound?
The MIC was 0.06 mg/L (≈ 0.149 µM).

And the MIC ([2]; S. pneumoniae ATCC 49619 Parent)?
Its MIC is 0.12 mg/L (≈ 0.299 µM).

And the MIC ([2]; S. pyogenes ATCC 49399, selected on rifaximin 4X MIC, Colony A)?
Its MIC is 0.06 mg/L (≈ 0.149 µM).

And the MIC ([2]; S. pyogenes ATCC 49399, selected on rifaximin 4X MIC, Colony B)?
Its MIC is 0.06 mg/L (≈ 0.149 µM).

What about the MIC ([2]; S. pyogenes ATCC 49399, selected on rifaximin 8X MIC, Colony A) of the same compound?
The MIC was 0.06 mg/L (≈ 0.149 µM).

And the MIC ([2]; S. pyogenes ATCC 49399, selected on rifaximin 8X MIC, Colony B)?
Its MIC is 0.06 mg/L (≈ 0.149 µM).

What about the MIC ([2]; S. pyogenes ATCC 49399 Parent) of the same compound?
Its MIC is 0.06 mg/L (≈ 0.149 µM).

What about the MIC ([3]; B. fragilis ATCC 25285, selected on rifaximin 4X MIC, Colony A) of the same compound?
Its MIC is 0.06 mg/L.

And the MIC ([3]; B. fragilis ATCC 25285, selected on rifaximin 4X MIC, Colony B)?
The MIC was 0.12 mg/L.

And the MIC ([3]; B. fragilis ATCC 25285, selected on rifaximin 8X MIC, Colony A)?
Its MIC is 0.12 mg/L.

And the MIC ([3]; B. fragilis ATCC 25285, selected on rifaximin 8X MIC, Colony B)?
The MIC was 0.12 mg/L.

What about the MIC ([3]; B. fragilis ATCC 25285 Parent) of the same compound?
Its MIC is 0.06 mg/L.

And the MIC ([3]; B. ovatus MMX 3503, selected on rifaximin 4X MIC, Colony A)?
Its MIC is 2 mg/L.

What about the MIC ([3]; B. ovatus MMX 3503, selected on rifaximin 4X MIC, Colony B) of the same compound?
Its MIC is 0.5 mg/L.

And the MIC ([3]; B. ovatus MMX 3503, selected on rifaximin 8X MIC, Colony A)?
Its MIC is 1 mg/L.

What about the MIC ([3]; B. ovatus MMX 3503, selected on rifaximin 8X MIC, Colony B) of the same compound?
Its MIC is 1 mg/L.

What about the MIC ([3]; B. ovatus MMX 3503 Parent) of the same compound?
Its MIC is 1 mg/L.

And the MIC ([3]; B. vulgatus ATCC 8482, selected on ceftriaxone 4X MIC, Colony A)?
Its MIC is 0.5 mg/L.

What about the MIC ([3]; B. vulgatus ATCC 8482, selected on ceftriaxone 4X MIC, Colony B) of the same compound?
The MIC was 0.5 mg/L.

And the MIC ([3]; B. vulgatus ATCC 8482, selected on rifaximin 4X MIC, Colony A)?
The MIC was 0.5 mg/L.

What about the MIC ([3]; B. vulgatus ATCC 8482, selected on rifaximin 4X MIC, Colony B) of the same compound?
Its MIC is 0.25 mg/L.

And the MIC ([3]; B. vulgatus ATCC 8482, selected on rifaximin 8X MIC, Colony A)?
Its MIC is 0.5 mg/L.

What about the MIC ([3]; B. vulgatus ATCC 8482, selected on rifaximin 8X MIC, Colony B) of the same compound?
The MIC was 0.5 mg/L.

What about the MIC ([3]; B. vulgatus ATCC 8482 Parent (Table 50)) of the same compound?
Its MIC is 0.5 mg/L.

What about the MIC ([3]; B. vulgatus ATCC 8482 Parent (Table 54)) of the same compound?
Its MIC is 0.5 mg/L.
